Results as given in ChEMBL document CHEMBL6103630, “Discovery of Novel 2,4,5-Trisubstituted Pyrimidine Derivatives as Potent and Selective FGFR Inhibitors against Gatekeeper Mutants for the Treatment of NSCLC” (J Med Chem, 2025).
Activity calls are given as the source filed them. The calls are words filed in the database; no cut-off is given here.

Tests used:
[1] = AUC(0 to t) in male Sprague-Dawley rat at 10 mg/kg, po by UHPLC-MS/MS analysis; type: ADME, organism-based; details: in vivo
A549 [2] = assay: Inhibition of cell migration in human A549 cells at 10 to 40 nM incubated for 48 hrs by crystal violet staining based transwell assay; type: functional; details: dose 10-40 nM
[3] = target: Epidermal growth factor receptor (Homo sapiens) (UniProt P00533); assay: Inhibition of EGFR (unknown origin)
[4] = target: Platelet-derived growth factor receptor beta (Homo sapiens) (UniProt P09619); assay: Inhibition of PDGFRbeta (unknown origin)
[5] = Toxicity in BALB/c nude mouse xenografted with human NCI-H1581 cells assessed as change in body weight
L6 = assay: Antitumor activity against rat L6 cells harboring FGFR1 V561M mutant xenografted in BALB/c nude mouse assessed as induction of apoptosis in tumor at 30 to 60 mg/kg by H and E staining based analysis; type: functional, organism-based; details: dose 30-60 mg/kg
Mus musculus [6] = assay: In vivo inhibition of FGFR1 signaling pathway in BALB/c nude mouse xenografted with human NCI-H1581 cells assessed as reduction in FGFR1 phosphorylation level in tumor by Western blotting analysis; type: functional, organism-based
[7] = Toxicity in ICR mouse assessed as change in lung weight at 80 mg/kg, po measured after 7 days; type: organism-based; details: in vivo, 168 h, time 7 day
A549 [8] = assay: Inhibition of DNA replication in human A549 cells incubated for 1 hrs by EdU staining based analysis; type: functional, cell-based; details: dose 10-40 µM
NCI-H1581 [9] = assay: Antitumor activity against human NCI-H1581 cells xenografted in BALB/c nude mouse assessed as tumor growth inhibition at 60 mg/kg relative to control; type: functional; details: read-out: TGI
[10] = target: T1, Fibroblast growth factor receptor 2 (Homo sapiens, UniProt P21802); assay: Inhibition of wild type FGFR2 (unknown origin) by caliper mobility shift assay
Target sequence in this assay (P21802 whole entry): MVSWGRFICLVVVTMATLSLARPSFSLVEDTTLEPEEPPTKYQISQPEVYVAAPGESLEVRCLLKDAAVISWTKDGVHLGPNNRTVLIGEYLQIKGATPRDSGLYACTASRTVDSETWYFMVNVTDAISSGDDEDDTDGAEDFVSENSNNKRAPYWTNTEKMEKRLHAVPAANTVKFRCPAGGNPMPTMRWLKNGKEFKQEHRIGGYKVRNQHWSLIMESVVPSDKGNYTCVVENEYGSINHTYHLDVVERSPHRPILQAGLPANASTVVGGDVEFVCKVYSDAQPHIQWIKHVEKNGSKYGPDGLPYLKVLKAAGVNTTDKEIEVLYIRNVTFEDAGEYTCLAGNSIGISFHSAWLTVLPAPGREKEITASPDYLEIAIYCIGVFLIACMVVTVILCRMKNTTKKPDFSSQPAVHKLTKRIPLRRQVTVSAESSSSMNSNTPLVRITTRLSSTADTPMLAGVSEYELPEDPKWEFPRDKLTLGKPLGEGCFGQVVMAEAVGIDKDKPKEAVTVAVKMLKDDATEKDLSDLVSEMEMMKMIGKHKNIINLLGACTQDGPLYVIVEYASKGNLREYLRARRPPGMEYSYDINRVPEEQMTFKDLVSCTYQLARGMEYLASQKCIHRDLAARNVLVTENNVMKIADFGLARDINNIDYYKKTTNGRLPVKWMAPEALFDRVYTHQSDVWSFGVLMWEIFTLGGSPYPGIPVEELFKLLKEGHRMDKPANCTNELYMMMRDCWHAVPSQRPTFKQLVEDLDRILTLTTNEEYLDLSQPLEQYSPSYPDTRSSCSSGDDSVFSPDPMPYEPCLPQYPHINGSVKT

NCI-H1581 [11] = assay: Inhibition of cell migration in human NCI-H1581 cells at 40 nM incubated upto 72 hrs by wound healing assay (reference value: 80%); type: functional
[12] = target: Fibroblast growth factor receptor 2 (Homo sapiens, UniProt P21802, V564F)
Mus musculus [13] = assay: In vivo inhibition of AKT phosphorylation in BALB/c nude mouse xenografted with rat L6 cells harboring FGFR1 V561M mutant assessed as suppression of AKT level in tumor at 60 mg/kg by Western blotting analysis; type: functional, organism-based
[14] = Toxicity in ICR mouse assessed as change in liver weight at 80 mg/kg, po measured after 7 days; type: organism-based; details: in vivo, 168 h, time 7 day
A549 [15] = assay: cells; details: Homo sapiens, A549, 48 h
Description: Antiproliferative activity against human A549 cells assessed as inhibition of cell proliferation incubated for 48 hrs by MTT assay

[16] = Toxicity in BALB/c nude mouse xenografted with rat L6 cells harboring FGFR V561M mutant assessed as change in kidney weight at 30 to 60 mg/kg and measured daily for 14 days; type: organism-based; details: in vivo, 336 h, dose 30-60 mg/kg, time 14 day
A549 [17] = assay: Inhibition of AKT (unknown origin) phosphorylation in human A549 cells at 250 to 1000 nM by Western blotting analysis; type: cell-based; details: dose 250-1000 nM
[18] = Half life in male Sprague-Dawley rat at 2 mg/kg, iv by UHPLC-MS/MS analysis; type: ADME, organism-based; details: in vivo
[19] = target: Fibroblast growth factor receptor 2 (Homo sapiens, UniProt P21802, V564I)
[20] = target: T2, Fibroblast growth factor receptor 3 (Homo sapiens, UniProt P22607); assay: Binding affinity to FGFR3 (unknown origin) at 0.1 uM
Target sequence in this assay (P22607 23-806 limits assumed): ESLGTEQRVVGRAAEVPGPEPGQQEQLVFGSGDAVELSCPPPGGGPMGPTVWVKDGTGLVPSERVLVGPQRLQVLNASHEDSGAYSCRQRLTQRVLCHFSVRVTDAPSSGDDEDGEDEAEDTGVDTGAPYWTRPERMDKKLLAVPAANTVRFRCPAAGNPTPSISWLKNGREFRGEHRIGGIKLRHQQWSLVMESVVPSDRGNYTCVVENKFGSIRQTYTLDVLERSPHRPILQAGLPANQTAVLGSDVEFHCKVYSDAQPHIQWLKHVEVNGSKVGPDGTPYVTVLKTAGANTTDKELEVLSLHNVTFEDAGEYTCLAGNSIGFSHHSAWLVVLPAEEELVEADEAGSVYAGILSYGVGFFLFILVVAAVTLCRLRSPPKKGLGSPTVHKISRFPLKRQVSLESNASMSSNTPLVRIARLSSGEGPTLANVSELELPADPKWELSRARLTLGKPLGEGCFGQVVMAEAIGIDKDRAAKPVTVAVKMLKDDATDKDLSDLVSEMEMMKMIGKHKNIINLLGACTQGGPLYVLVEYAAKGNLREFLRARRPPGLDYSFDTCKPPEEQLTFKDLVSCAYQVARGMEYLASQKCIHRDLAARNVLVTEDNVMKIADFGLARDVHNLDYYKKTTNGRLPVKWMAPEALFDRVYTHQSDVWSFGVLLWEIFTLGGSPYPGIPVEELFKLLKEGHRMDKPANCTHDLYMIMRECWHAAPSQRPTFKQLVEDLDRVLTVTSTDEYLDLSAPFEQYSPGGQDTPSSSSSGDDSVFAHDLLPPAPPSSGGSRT

[21] = target: Fibroblast growth factor receptor 3 (Homo sapiens, UniProt P22607, V555L); assay: Inhibition of FGFR3 V555L mutant (unknown origin) by caliper mobility shift assay
[22] = Toxicity in BALB/c nude mouse xenografted with human NCI-H1581 cells assessed as change in spleen weight and measured after 14 days; details: 336 h, time 14 day
[23] = Toxicity in ICR mouse assessed as change in heart weight at 80 mg/kg, po measured after 7 days; type: organism-based; details: in vivo, 168 h, time 7 day
[24] = Antitumor activity against rat L6 cells harboring FGFR V561M mutant xenografted in BALB/c nude mouse assessed as tumor growth inhibition at 60 mg/kg relative to control; type: functional; details: read-out: TGI
[25] = target: Vascular endothelial growth factor receptor 2 (Homo sapiens) (UniProt P35968); assay: Inhibition of VEGFR2 (unknown origin)
[26] = Hepatotoxicity in ICR mouse assessed as change in AST level at 80 mg/kg, po; type: toxicity, organism-based; details: in vivo
[27] = Toxicity in BALB/c nude mouse xenografted with human NCI-H1581 cells assessed as change in kidney weight and measured after 14 days; type: tissue-based; details: 336 h, time 14 day
Mus musculus [28] = assay: In vivo inhibition of AKT phosphorylation in BALB/c nude mouse xenografted with human NCI-H1581 cells assessed as reduction in AKT phosphorylation level in tumor by Western blotting analysis; type: functional, organism-based
NCI-H1581 [29] = assay: cells; details: Homo sapiens, NCI-H1581, 48 h
Description: Antiproliferative activity against human NCI-H1581 cells assessed as inhibition of cell proliferation incubated for 48 hrs by MTT assay

[30] = target: T1, Fibroblast growth factor receptor 2; assay: Covalent irreversible binding affinity to FGFR2 (unknown origin) by MALDI-TOF MS analysis
[31] = Toxicity in BALB/c nude mouse xenografted with human NCI-H1581 cells assessed as change in ALT level at 60 mg/kg; type: organism-based; details: in vivo
[32] = AUC(0 to infinity) in male Sprague-Dawley rat at 10 mg/kg, po by UHPLC-MS/MS analysis; type: ADME, organism-based; details: in vivo
[33] = Toxicity in ICR mouse assessed as histopathological changes in liver at 80 mg/kg, po by H and E staining based analysis; type: organism-based; details: in vivo
[34] = AUC(0 to t) in male Sprague-Dawley rat at 2 mg/kg, iv by UHPLC-MS/MS analysis; type: ADME, organism-based; details: in vivo
Mus musculus [35] = assay: In vivo inhibition of FGFR1 signaling pathway in BALB/c nude mouse xenografted with rat L6 cells harboring FGFR1 V561M mutant assessed as suppression of FGFR1 phosphorylation in tumor at 60 mg/kg by Western blotting analysis; type: functional, organism-based
[36] = target: Platelet-derived growth factor receptor alpha (Homo sapiens) (UniProt P16234); assay: Inhibition of PDGFRalpha (unknown origin)
[37] = target: T2, Fibroblast growth factor receptor 3; assay: Inhibition of wild type FGFR3 (unknown origin) by caliper mobility shift assay
Target sequence in this assay (P22607 whole entry): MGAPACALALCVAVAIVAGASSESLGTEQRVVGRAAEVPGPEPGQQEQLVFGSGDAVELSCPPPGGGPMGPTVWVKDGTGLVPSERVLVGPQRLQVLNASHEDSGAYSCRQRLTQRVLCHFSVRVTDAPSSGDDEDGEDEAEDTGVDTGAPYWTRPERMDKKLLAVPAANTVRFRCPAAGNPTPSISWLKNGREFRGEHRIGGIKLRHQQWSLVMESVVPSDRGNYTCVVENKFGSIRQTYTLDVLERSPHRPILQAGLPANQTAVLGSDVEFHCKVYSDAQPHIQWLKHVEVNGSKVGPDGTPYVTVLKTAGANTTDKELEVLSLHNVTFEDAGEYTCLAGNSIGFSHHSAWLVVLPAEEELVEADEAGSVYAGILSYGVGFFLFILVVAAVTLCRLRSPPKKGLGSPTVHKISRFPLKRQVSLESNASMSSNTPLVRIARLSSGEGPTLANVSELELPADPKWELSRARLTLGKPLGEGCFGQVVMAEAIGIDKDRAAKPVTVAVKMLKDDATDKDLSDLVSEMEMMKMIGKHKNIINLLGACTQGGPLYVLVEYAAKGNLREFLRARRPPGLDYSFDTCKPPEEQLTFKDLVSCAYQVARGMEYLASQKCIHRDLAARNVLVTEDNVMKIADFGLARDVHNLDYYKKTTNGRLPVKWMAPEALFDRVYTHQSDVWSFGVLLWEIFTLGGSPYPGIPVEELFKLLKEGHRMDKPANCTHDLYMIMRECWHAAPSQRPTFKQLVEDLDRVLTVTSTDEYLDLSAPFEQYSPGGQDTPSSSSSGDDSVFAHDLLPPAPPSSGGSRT

NCI-H1581 [38] = assay: Inhibition of colony formation in human NCI-H1581 cells at 10 nM incubated for 48 hrs by crystal violet staining based assay; type: functional, cell-based
[39] = Cmax in male Sprague-Dawley rat at 10 mg/kg, po by UHPLC-MS/MS analysis; type: ADME, organism-based; details: in vivo
NCI-H1581 [40] = assay: Inhibition of cell migration in human NCI-H1581 cells at 10 to 40 nM incubated for 48 hrs by crystal violet staining based transwell assay; type: functional; details: dose 10-40 nM
[41] = Tmax in male Sprague-Dawley rat at 2 mg/kg, iv by UHPLC-MS/MS analysis; type: ADME, organism-based; details: in vivo

Chain of Epidermal growth factor receptor (Homo sapiens) (P00533 whole entry): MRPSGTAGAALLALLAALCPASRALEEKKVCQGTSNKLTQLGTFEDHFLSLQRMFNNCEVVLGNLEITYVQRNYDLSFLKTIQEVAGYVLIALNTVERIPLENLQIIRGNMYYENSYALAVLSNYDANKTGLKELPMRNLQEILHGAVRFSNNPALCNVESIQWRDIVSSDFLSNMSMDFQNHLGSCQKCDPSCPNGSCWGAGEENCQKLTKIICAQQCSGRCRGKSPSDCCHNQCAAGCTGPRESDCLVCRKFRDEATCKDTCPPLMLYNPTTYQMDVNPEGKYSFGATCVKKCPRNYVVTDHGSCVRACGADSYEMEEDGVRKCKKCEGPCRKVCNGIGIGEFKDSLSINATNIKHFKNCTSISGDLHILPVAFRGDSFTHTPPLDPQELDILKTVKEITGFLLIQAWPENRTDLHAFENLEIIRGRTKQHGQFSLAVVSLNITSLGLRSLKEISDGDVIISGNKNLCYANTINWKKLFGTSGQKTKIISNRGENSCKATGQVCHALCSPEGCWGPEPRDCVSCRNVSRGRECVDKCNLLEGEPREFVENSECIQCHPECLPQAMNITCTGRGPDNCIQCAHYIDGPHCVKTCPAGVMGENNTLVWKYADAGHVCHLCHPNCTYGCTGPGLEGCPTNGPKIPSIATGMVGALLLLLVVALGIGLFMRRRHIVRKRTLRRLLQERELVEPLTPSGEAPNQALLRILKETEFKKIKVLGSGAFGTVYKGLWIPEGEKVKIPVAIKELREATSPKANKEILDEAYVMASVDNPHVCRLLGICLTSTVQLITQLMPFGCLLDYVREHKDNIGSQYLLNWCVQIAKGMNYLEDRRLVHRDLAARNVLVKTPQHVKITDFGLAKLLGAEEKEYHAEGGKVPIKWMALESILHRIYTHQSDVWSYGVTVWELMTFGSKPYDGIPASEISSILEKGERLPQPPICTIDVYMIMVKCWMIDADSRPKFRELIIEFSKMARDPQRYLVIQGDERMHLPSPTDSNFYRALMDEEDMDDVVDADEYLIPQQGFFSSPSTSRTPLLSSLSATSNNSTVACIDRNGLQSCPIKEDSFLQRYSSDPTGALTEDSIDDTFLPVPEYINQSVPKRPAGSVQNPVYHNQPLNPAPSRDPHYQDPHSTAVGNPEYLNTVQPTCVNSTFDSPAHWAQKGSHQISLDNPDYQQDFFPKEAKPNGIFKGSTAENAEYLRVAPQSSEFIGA
Chain of Platelet-derived growth factor receptor beta (Homo sapiens) (P09619 whole entry): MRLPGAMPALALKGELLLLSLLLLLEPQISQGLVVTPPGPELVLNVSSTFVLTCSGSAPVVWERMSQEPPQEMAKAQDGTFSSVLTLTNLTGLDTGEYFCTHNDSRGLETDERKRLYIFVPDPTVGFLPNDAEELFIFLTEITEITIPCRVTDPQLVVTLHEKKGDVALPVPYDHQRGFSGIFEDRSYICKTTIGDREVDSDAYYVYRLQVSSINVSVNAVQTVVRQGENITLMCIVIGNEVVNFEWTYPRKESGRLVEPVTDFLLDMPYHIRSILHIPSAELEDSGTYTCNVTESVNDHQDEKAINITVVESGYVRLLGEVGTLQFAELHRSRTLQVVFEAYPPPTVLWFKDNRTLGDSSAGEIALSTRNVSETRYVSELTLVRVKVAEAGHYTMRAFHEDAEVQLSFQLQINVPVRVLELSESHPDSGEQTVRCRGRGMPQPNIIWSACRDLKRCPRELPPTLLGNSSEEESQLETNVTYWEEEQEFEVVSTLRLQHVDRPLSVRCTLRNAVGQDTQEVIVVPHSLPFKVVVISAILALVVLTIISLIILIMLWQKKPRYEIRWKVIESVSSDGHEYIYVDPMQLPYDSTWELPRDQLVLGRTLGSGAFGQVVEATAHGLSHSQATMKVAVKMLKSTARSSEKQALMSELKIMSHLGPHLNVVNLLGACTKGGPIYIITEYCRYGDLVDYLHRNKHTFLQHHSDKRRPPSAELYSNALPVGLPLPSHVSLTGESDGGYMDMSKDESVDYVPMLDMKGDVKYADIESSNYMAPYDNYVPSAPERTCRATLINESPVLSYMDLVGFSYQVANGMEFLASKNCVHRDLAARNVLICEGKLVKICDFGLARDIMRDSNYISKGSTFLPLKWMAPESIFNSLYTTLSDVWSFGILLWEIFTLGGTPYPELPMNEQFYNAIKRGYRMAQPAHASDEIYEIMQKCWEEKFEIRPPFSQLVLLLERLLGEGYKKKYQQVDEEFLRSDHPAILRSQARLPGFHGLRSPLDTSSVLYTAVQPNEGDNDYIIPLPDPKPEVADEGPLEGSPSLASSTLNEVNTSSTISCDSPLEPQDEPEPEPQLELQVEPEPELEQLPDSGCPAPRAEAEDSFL
Chain of Fibroblast growth factor receptor 3 (Homo sapiens, UniProt P22607, V555L) (P22607 23-806 V555L limits assumed): as the sequence (P22607 23-806 limits assumed) above, with V533L counted along it

- AUC(0-t) [1]: 7800 ng·h/mL
- IC50 [10]: 15.6 nM
- IC50 [12]: 1.5 nM
- IC50 (A549 [15]): 380 nM
- half-life [18]: 3.55 h
- IC50 [19]: 29.9 nM
- Activity [20]: Not active; Reduced Affinities Observed
- IC50 [21]: 2.2 nM
- IC50 (NCI-H1581 [29]): 18 nM
- Activity [30]: Active
- AUC(0-inf) [32]: 12900 ng·h/mL
- AUC(0-t) [34]: 1940 ng·h/mL
- IC50 [37]: 19.4 nM
- Cmax [39]: 2250 ng/mL
- Tmax [41]: 4.8 min
Compound: C=CC(=O)Nc1ccc(Nc2nc(Nc3ccc(N4C[C@@H](C)N[C@@H](C)C4)c(OC)c3)ncc2Cl)cc1Cl
- inhibition (A549 [2]): Active
- inhibition [3]: Not active; Moderate To Weak Inhibitory Activity Observed
- inhibition [4]: Not active; Moderate To Weak Inhibitory Activity Observed
- Activity [5]: Non-toxic
- Activity (L6): Active
- inhibition (Mus musculus [6]): Active
- Activity [7]: Non-toxic
- inhibition (A549 [8]): Dose-dependent-effect
- inhibition in vivo at 60 mg/kg (NCI-H1581 [9]): 61%
- inhibition at 0.04 µM (NCI-H1581 [11]): 40%
- inhibition (Mus musculus [13]): Active
- Activity [14]: Non-toxic
- Activity [16]: Non-toxic
- inhibition (A549 [17]): Dose-dependent-effect
- Activity [22]: Non-toxic
- Activity [23]: Non-toxic
- inhibition in vivo at 60 mg/kg [24]: 69%
- inhibition [25]: Not active; Moderate To Weak Inhibitory Activity Observed
- Activity [26]: Non-toxic
- Activity [27]: Non-toxic
- inhibition (Mus musculus [28]): Active
- Activity [31]: Non-toxic
- Activity [33]: Non-toxic
- inhibition (Mus musculus [35]): Active
- inhibition [36]: Not active; Moderate To Weak Inhibitory Activity Observed
- inhibition (NCI-H1581 [38]): Active; Stronger Inhibition Observed
- inhibition (NCI-H1581 [40]): Active
